Counter-ions that a name gives are not always drawn. Like-named read-outs stand apart in the source and are kept apart here. Values belong to the compound of their own block, whether it stands above or below them.
What was measured:
[1] = target: T1, E-cNOS (Type 3) (Bos taurus, UniProt P29473); assay: biochemical
T1 construct: the resulting supernatant was used as the crude enzyme sample of E-cNOS; endogenous in cells; host or cells: CPAE (cow pulmonary arterial endothelium cells), 1% Triton X-100 extract, 100,000 x g supernatant
T1 sequence (P29473 2-1205): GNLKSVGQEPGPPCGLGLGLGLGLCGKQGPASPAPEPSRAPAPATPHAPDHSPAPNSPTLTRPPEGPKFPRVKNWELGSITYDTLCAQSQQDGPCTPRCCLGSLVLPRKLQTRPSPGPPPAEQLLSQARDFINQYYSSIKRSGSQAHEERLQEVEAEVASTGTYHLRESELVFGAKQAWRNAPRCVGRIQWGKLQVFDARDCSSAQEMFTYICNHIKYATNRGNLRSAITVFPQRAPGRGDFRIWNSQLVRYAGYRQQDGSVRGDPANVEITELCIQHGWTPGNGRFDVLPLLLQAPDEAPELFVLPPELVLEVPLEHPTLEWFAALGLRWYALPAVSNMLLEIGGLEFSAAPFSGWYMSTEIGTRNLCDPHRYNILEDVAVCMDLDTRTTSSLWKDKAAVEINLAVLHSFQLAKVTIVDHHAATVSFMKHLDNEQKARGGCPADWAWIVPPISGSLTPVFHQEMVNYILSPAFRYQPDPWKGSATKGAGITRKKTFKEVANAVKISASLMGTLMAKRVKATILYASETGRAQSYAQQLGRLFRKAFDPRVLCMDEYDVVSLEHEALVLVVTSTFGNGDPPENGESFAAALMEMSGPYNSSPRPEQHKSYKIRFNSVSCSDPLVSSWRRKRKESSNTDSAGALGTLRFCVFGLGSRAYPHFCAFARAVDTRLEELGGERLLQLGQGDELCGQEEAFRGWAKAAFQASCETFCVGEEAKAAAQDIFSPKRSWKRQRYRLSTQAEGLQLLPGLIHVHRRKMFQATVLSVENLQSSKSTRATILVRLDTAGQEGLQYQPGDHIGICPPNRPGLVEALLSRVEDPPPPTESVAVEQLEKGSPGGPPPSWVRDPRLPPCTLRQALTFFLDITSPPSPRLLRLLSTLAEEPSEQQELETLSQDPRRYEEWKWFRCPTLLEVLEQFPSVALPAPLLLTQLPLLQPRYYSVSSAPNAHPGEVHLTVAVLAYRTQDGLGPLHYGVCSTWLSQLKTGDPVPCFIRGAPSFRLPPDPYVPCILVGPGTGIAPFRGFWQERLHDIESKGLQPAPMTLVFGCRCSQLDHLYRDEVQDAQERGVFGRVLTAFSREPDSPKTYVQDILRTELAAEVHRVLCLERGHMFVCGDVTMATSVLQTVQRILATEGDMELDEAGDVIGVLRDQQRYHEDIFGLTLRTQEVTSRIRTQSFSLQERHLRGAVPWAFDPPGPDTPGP

[2] = target: iNOS (Type 2) (Rattus norvegicus, UniProt Q06518); assay: biochemical; assay type: biochemical
iNOS (Type 2), sequence (Q06518 whole entry, looked up): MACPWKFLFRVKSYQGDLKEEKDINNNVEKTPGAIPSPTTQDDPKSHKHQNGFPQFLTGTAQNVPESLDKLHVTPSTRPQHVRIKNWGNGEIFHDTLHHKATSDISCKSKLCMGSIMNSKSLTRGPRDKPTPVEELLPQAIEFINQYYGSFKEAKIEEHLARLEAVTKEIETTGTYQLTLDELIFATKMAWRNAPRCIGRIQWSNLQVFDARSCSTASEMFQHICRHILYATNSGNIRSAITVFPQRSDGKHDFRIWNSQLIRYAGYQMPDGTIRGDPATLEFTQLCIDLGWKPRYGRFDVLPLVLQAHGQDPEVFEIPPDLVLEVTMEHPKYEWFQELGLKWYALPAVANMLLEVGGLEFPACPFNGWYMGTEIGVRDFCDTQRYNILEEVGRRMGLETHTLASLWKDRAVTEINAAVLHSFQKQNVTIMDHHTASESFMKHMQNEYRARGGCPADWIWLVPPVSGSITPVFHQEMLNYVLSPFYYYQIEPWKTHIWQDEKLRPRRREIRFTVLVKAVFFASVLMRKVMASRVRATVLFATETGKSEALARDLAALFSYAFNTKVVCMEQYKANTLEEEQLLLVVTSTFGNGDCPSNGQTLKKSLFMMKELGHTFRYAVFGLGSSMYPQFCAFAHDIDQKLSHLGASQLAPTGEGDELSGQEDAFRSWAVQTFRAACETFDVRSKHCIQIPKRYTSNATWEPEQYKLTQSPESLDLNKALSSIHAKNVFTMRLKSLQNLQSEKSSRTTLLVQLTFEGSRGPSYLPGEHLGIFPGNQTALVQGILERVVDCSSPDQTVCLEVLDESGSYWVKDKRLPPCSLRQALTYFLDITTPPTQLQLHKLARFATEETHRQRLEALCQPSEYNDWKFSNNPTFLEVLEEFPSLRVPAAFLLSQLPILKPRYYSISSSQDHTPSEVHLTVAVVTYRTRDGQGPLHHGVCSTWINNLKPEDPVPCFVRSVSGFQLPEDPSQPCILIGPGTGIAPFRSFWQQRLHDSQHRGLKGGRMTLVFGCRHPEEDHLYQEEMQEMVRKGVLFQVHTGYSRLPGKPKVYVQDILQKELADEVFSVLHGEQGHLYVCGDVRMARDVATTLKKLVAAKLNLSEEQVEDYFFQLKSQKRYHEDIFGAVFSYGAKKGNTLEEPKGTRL

[3] = mean of one to four independent experiments, crude enzyme, 100 nM L-[3H]arginine, read-out: IC50 value, E-cNOS (Type 3)
[4] = mean of one to four independent experiments, crude enzyme, 100 nM L-[3H]arginine, without CaCl2 and calmodulin, read-out: IC50 value, iNOS (Type 2)
[5] = conclusion from Tables 49, 50 and 51

Structure (SMILES): CSC(=N)Nc1cccc(C(C)(C)N)c1.Cl.Cl [Example 5, N-(1-methyl-1-(3-(S-methylisothioureido)phenyl)ethyl)amine dihydrochloride]
IC50 [1, 3]: 429 nM
Ratio of IC50 values E-cNOS/iNOS ([2]; index of selectivity): 1.0
IC50 [2, 4]: 449 nM

Structure (SMILES): CC(C)(N)c1cccc(NC(N)=N[N+](=O)[O-])c1.Cl [Example 7, N-(1-methyl-1-(3-(N′-nitroguanidino)phenyl)ethyl)amine hydrochloride]
IC50 [1, 3]: 42.4 nM
Ratio of IC50 values E-cNOS/iNOS [2]: 0.02
IC50 [2, 4]: 2120 nM

Structure (SMILES): CSC(=N)Nc1cccc(C(C)N)c1.Cl.Cl (stereo not shown) [Example 12, N-(1-(3-(S-methylisothioureido)phenyl)ethyl)amine dihydrochloride]
IC50 [1, 3]: 538 nM
Ratio of IC50 values E-cNOS/iNOS [2]: 2.3
iNOS inhibitory potency compared with the existing NOS inhibitors (L-MIN) [2, 5]: more potent in inhibiting iNOS than L-MIN
IC50 [2, 4]: 239 nM

Structure (SMILES): CSC(=N)Nc1cccc(CN)c1.Cl.Cl [Example 26, N-(3-(S-methylisothioureido)phenylmethyl)amine dihydrochloride]
IC50 [1, 3]: 431 nM
Ratio of IC50 values E-cNOS/iNOS ([2]; index of selectivity): 0.3
IC50 [2, 4]: 1350 nM

Structure (SMILES): CSC(=N)Nc1ccc(CCN)cc1.Cl.Cl [Example 52, N-(4-(S-methylisothioureido)phenylethyl)amine dihydrochloride]
IC50 [1, 3]: 483 nM
Ratio of IC50 values E-cNOS/iNOS ([2]; index of selectivity): 0.2
IC50 [2, 4]: 2760 nM

IC50 [2, 4]: 5020 nM
Structure (SMILES): N=C(Nc1ccc(CCN)cc1)N[N+](=O)[O-] [Example 54, N-(4-(N′-nitroguanidino)phenylethyl)amine]

IC50 [2, 4]: 6750 nM
Structure (SMILES): CSC(=N)Nc1cccc(CCN)c1 [Example 60, N-(3-(S-methylisothioureido)phenylethyl)amine dihydrochloride]

Structure (SMILES): CCSC(=N)Nc1ccc(CCN)cc1.Cl.Cl [Example 104, N-(4-(S-ethylisothioureido)phenylethyl)amine dihydrochloride]
IC50 [1, 3]: 118 nM
iNOS inhibitory potency compared with the existing NOS inhibitors (L-MIN) [2, 5]: more potent in inhibiting iNOS than L-MIN
Ratio of IC50 values E-cNOS/iNOS ([2]; index of selectivity): 1.4
IC50 [2, 4]: 86.5 nM

IC50 [1, 3]: 3530 nM
IC50 [2, 4]: 24600 nM
Structure (SMILES): CCSC(=N)Nc1ccc(OC)c(CN)c1 [Example 122, N-(5-(S-ethylisothioureido)-2-methoxyphenylmethyl)amine dihydrochloride]

Structure (SMILES): CCSC(=N)Nc1cccc(CN)c1C.Cl.Cl [Example 131, N-(3-(S-ethylisothioureido)-2-methylphenylmethyl)amine dihydrochloride]
IC50 [1, 3]: 481 nM
Ratio of IC50 values E-cNOS/iNOS [2]: 6.2
selectivity for iNOS compared to E-cNOS, compared with the existing NOS inhibitors (L-NIO) [2]: more selective inhibitory effect on iNOS than L-NIO
iNOS inhibitory potency compared with the existing NOS inhibitors (L-MIN) [2, 5]: more potent in inhibiting iNOS than L-MIN
IC50 [2, 4]: 78.2 nM

Structure (SMILES): CCN=C(N)Nc1ccc(N(C)C)c(CN)c1.Cl.Cl.Cl [Example 267, N-(2-dimethylamino-5-(N′-ethylguanidino)phenylmethyl)amine trihydrochloride]
IC50 [1, 3]: 50100 nM
selectivity for iNOS compared to E-cNOS, compared with the existing NOS inhibitors (L-NIO) [2, 5]: more selective inhibitory effect on iNOS than L-NIO
Ratio of IC50 values E-cNOS/iNOS ([2]; index of selectivity): 10.5
IC50 [2, 4]: 4790 nM

Structure (SMILES): CCSC(=N)Nc1ccc(N(C)C)c(CN)c1.Cl.Cl.Cl [Example 270, N-(2-dimethylamino-5-(S-ethylisothioureido)phenylmethyl)amine trihydrochloride]
IC50 [1, 3]: 3590 nM
Ratio of IC50 values E-cNOS/iNOS ([2]; index of selectivity): 0.8
IC50 [2, 4]: 4530 nM

Structure (SMILES): CCOc1ccc(NC(=N)SCC)cc1CN.Cl.Cl [Example 324, N-(2-ethoxy-5-(S-ethylisothioureido)phenylmethyl) amine dihydrochloride]
IC50 [1, 3]: 2310 nM
Ratio of IC50 values E-cNOS/iNOS ([2]; index of selectivity): 0.3
IC50 [2, 4]: 8730 nM

Structure (SMILES): CCSC(=N)Nc1ccc(OCc2ccccc2)c(CN)c1.Cl.Cl [Example 337, N-(2-benzyloxy-5-(S-ethylisothioureido)phenylmethyl)amine dihydrochloride]
IC50 [1, 3]: 5200 nM
Ratio of IC50 values E-cNOS/iNOS ([2]; index of selectivity): 0.3

Structure (SMILES): CCSC(=N)Nc1ccc(OC)c(C(C)(C)N)c1 [Example 350, N-(1-(5-(S-ethylisothioureido)-2-methoxyphenyl)-1-methylethyl)amine]
IC50 [1, 3]: 15800 nM
Ratio of IC50 values E-cNOS/iNOS ([2]; index of selectivity): 0.3
IC50 [2, 4]: 58400 nM

Structure (SMILES): CCSC(=N)Nc1ccc(NC)c(CN)c1.Cl.Cl.Cl [Example 452, N-(5-(S-ethylisothioureido)-2-methylaminophenylmethyl)amine trihydrochloride]
IC50 [1, 3]: 3630 nM
Ratio of IC50 values E-cNOS/iNOS [2]: 0.5
IC50 [2, 4]: 6960 nM

Structure (SMILES): CCN=C(N)Nc1cccc(CN)c1Cl.Cl.Cl [Example 538, N-(2-chloro-3-(N′-ethylguanidino)phenylmethyl)amine dihydrochloride]
IC50 [1, 3]: 2540 nM
Ratio of IC50 values E-cNOS/iNOS [2]: 8.3
selectivity for iNOS compared to E-cNOS, compared with the existing NOS inhibitors (L-NIO) [2]: more selective inhibitory effect on iNOS than L-NIO
IC50 [2, 4]: 306 nM

Structure (SMILES): N/N=C(\N)NCCC[C@H](N)C(=O)O [L-AA, N^G-amino-L-arginine, reference compound]
IC50 [1]: 167 nM
IC50 [2]: 1280 nM

Structure (SMILES): CCSC(N)=NCCC[C@H](N)C(=O)O [L-EIN, S-ethyl-L-thiocitrulline, reference compound]
IC50 [1, 3]: 732 nM
IC50 [2, 4]: 6760 nM

Structure (SMILES): CC(=N)NCCC[C@H](N)C(=O)O [L-NIO, NG-iminoethyl-L-ornithine, reference compound]
IC50 ([1]; mean of one to four independent experiments, CPAE cell crude enzyme, read-out: IC50 value, E-cNOS (Type 3)): 1230 nM
IC50 ([2]; mean of one to four independent experiments, LPS-treated rat lung crude enzyme, read-out: IC50 value, iNOS (Type 2)): 458 nM

IC50 ([2]; read-out: IC50 value, iNOS (Type 2)): 3480 nM
Structure (SMILES): CNC(=N)NCCC[C@H](N)C(=O)O [L-NMMA, N^G-monomethyl-L-arginine, reference compound]

Source: patent US6534546B1 (Chugai Seiyaku Kabushiki Kaisha, priority 1994, dated 2003)
